Consider 33 molecules from PubChem BioAssay AID602211 (Sanford-Burnham Center for Chemical Genomics, 2012).

Active and inactive are the calls of the source.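 How the source made its calls: active means mean IC50 at or below 10 µM; inactive means the rest.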

This assay has as its system H9c2 cardiomyocytes, H2O2 protection, ATPLite viability, 2 h. Kind of assay: H2O2-induced H9c2 cell death suppression – ATPLite luminescence, set 2, dose response (AID 602211).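 Further: potency is for protection so actives keep ATP signal up against peroxide killing.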 In general terms: In ATP-based viability assays light output follows the ATP content of the culture.

In general, IC50 refers to the concentration that inhibits the measured activity by half. Consider `CCN(CC)S(=O)(=O)c1ccc(Nc2nc3ccccc3n3nnnc23)cc1`, for which the IC50 was 4.92 µM.

With `O=C(O)c1ccc2c(c1)S(=O)(=O)c1cc(N3CCN(c4cnccn4)CC3)ccc1C2=O`, the IC50 is > 79 µM (inactive).

In the case of `COc1cccc(NC(=O)c2oc3ccc(S(=O)(=O)N4CCOCC4)cc3c2C)c1`, the IC50 is 1.98 µM.

On to `CCOC(=O)c1nn(-c2cccc(OC)c2)c2nc(Nc3ccccc3)cc(=O)n12`, for which the IC50 is > 79 µM (inactive).

For the molecule `CCC(Oc1ccccc1)C(=O)Nc1ccccc1C(=O)N1CCCCC1` (stereo not drawn), the IC50 is 36.2 µM (inactive).

On to `COc1ccc(CNn2c(-c3cccs3)nc3ccccc3c2=O)cc1OC`, for which the IC50 is 7.18 µM.

Turning to `NC(=O)c1nsc(C(=O)N(c2ccccc2)C(C(=O)NC2CCCC2)c2ccc3ncccc3c2)c1N` (stereo not drawn), the IC50 is 3.35 µM.

In the case of `CC1(c2ccccc2)NC(=O)N(CC(=O)Nc2cccc(/C=C/c3ccccn3)c2)C1=O` (stereo not drawn), the IC50 is 9.76 µM.

Consider `COc1cc(NC(=O)c2csc(-c3ccncc3)n2)cc(C(=O)Nc2cccc(C(F)(F)F)c2)c1`, for which the IC50 was 2.7 µM.

Regarding `CCOCc1c(C(=O)NC2=Nc3ccccc3NC(CC)=C2C(=O)OCC)oc2ccccc12`, the IC50 was > 79 µM (inactive).

Turning to `Cc1ccc(-c2csc(N3CCC[C@@H]3C(=O)NCCn3c(-c4ccncc4)nc4ccccc43)n2)cc1`, the IC50 was 2.83 µM.

As for `COc1cccc(C(=O)Nc2c(C(N)=O)oc3ccccc23)c1`, the IC50 is 8.36 µM.

As to `COc1ccc(-c2ccc3c(c2)S(=O)(=O)c2cccc(C(=O)N4CCN(c5c(Cl)cncc5Cl)CC4)c2C3=O)cc1OC`, the IC50 is 4.27 µM.

With `O=C(NC1CCCCC1)C(c1ccc2ncccc2c1)N(Cc1ccco1)C(=O)c1ccc2c(c1)OCCO2` (stereo not drawn), the IC50 was 10.8 µM (inactive).

As for `CCn1nc(C(=O)NNC(=O)c2cc(Cl)ccc2OC)c2ccccc2c1=O`, the IC50 is 30 µM (inactive).

For the molecule `COc1ccccc1-c1cc(NC=O)c2ncc(-c3cccc(C(C)=O)c3)n2c1`, the IC50 is 8.53 µM.

Take `CC(C)(C)C(=O)Nc1ccc(C(=O)N/N=C/c2ccccc2OC(=O)c2ccccc2)cc1`: the IC50 was 6.72 µM.

On to `Cn1c(C(=O)NCCc2ccsc2)cc2c(=O)n(C)c3ccccc3c21`, for which the IC50 is 4.74 µM.

Turning to `COc1ccc2occ(C(=O)c3coc4ccc(O)c(CN(C)C)c34)c2c1`, the IC50 was 4.32 µM.

As for `COc1cc(/C=C/c2nnc3c4ccccc4ncn23)cc(OC)c1OC`, the IC50 is 4.47 µM.

With `COC(=O)/C(=C(O)\C=C\c1ccccc1[N+](=O)[O-])c1nc2ccccc2[nH]1`, the IC50 is 7.96 µM.

On to `CCOC(=O)c1c(C)[nH]c(O)c1C=Nc1ccc(Cl)cc1`, for which the IC50 was 34.4 µM (inactive).

`O=C(CN(c1ccc2c(c1)OCCO2)S(=O)(=O)c1ccccc1)Nc1ccc2c(c1)OCO2`: the concentration for half-maximal inhibition (IC50) was 4.32 µM.

`Cc1ccc(NC(=O)c2cc(-c3cccs3)nc3ccccc23)nc1`: the half-maximal inhibitory concentration (IC50) was 8.28 µM.

Turning to `CCOc1ccc(C(C(=O)NCC2CCCO2)N(C(=O)c2snc(C(N)=O)c2N)c2ccccc2F)cc1` (stereo not drawn), the IC50 was 3.67 µM.

On to `CC(C)CCN(C(=O)CNC(=O)c1ccco1)C(C(=O)NC1CCCCC1)c1ccco1` (stereo not drawn), for which the IC50 was 13.4 µM (inactive).

`O=C(CSc1ccc2nnc(-c3ccc(F)cc3)n2n1)N1CCCc2ccccc21`: the IC50 is 1.21 µM.

Take `COc1cc(/C=N/NC(=O)NC23CC4CC(CC(C4)C2)C3)ccc1OCC(N)=O`: the IC50 is 2.84 µM.

In the case of `O=[N+]([O-])c1ccc(Nc2nc(N/N=C/c3cccc(F)c3)nc(N3CCCC3)n2)cc1`, the IC50 is 9.66 µM.

In the case of `COc1ccc(-c2cc(NC(C)=O)c3ncc(-c4cccc(C(C)=O)c4)n3c2)cc1OC`, the IC50 was 7.18 µM.

As to `Cc1cc(C)cc(OCC(=O)Nc2cccc(-c3nc4ncccc4o3)c2)c1`, the IC50 is > 79 µM (inactive).

Turning to `CCOC(=O)c1ccc(NC(=O)c2nc[nH]c2C(=O)NCCCCCNC(=O)OC(C)(C)C)cc1`, the IC50 is 4.43 µM.

Take `CCOC(=O)N1CCc2c(sc(NC(=O)CN3CCOCC3)c2C(=O)Nc2ccccc2)C1`: the IC50 was 39.9 µM (inactive).
